In patent US9765018B2, “IDO inhibitors” (BRISTOL-MYERS SQUIBB COMPANY, priority 2013, dated 2017):

Legend:
IDO [1] = biological target: T1, IDO (Homo sapiens (Human), UniProt P14902); test: Kynurenine assay in IFN-γ-stimulated Hela cells; format: cell-based; settings: 20 h, read-out: Hela Kyurenine (IC50)
Method in brief: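 Kynurenine in supernatant is read at 490 nm after Ehrlich reagent (10 min RT), following TCA stop and 30 min at 50° C hydrolysis. Before that, Hela cells in phenol red-free RPMI/10% FBS were co-treated 20 h at 37° C with 100 ng/mL IFN-γ and compound (30 μM top, 3-fold series to 1.5 nM).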

IDO [2] = biological target: T1, IDO; test: LLE_IDO_ABS_DR (IDO assay, method not described)

T1 sequence (P14902 whole entry): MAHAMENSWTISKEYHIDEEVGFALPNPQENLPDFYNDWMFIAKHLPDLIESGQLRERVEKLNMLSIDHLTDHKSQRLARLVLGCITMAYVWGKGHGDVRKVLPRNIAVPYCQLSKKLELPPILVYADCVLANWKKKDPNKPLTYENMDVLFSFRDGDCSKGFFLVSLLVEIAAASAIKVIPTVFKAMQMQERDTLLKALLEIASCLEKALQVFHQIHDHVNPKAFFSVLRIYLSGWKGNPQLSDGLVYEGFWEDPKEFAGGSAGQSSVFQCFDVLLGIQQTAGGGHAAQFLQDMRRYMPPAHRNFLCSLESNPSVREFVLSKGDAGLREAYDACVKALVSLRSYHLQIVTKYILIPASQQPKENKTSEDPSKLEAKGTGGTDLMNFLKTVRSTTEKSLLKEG

COc1ccc(-c2ccc(Oc3ccccc3C3CC3)c(NC(=O)Nc3ccccc3Cl)c2)cc1C(=O)O [Example 124, 3′-(3-(2-chlorophenyl)ureido)-4′-(2-cyclopropylphenoxy)-4-methoxybiphenyl-3-carboxylic acid]
IC50 (IDO [1]): 140 nM | IC50 (IDO [2]): 820 nM

COc1ccc(-c2ccc(Oc3ccccc3C3CC3)c(NC(=O)Nc3ccccc3C)c2)cc1C(=O)O [Example 125, 4′-(2-cyclopropylphenoxy)-4-methoxy-3′-(3-o-tolylureido)biphenyl-3-carboxylic acid]
IC50 (IDO [1]): 170 nM | IC50 (IDO [2]): 730 nM

COc1ccc(-c2ccc(Oc3ccccc3C3CC3)c(NC(=O)Nc3cccc(C)c3)c2)cc1C(=O)O [Example 126, 4′-(2-cyclopropylphenoxy)-4-methoxy-3′-(3-m-tolylureido)biphenyl-3-carboxylic acid]
IC50 (IDO [1]): 190 nM | IC50 (IDO [2]): 760 nM

COc1ccc(-c2ccc(Oc3cccc4ccccc34)c(NC(=O)Nc3ccccc3Cl)c2)cc1C(=O)O [Example 128, 3′-(3-(2-chlorophenyl)ureido)-4-methoxy-4′-(naphthalen-1-yloxy)biphenyl-3-carboxylic acid]
IC50 (IDO [1]): 40 nM | IC50 (IDO [2]): 250 nM

COc1ccc(-c2ccc(Oc3cccc4ccccc34)c(NC(=O)Nc3cccc(C)c3)c2)cc1C(=O)O [Example 130, 4-methoxy-4′-(naphthalen-1-yloxy)-3′-(3-m-tolylureido)biphenyl-3-carboxylic acid]
IC50 (IDO [1]): 120 nM | IC50 (IDO [2]): 480 nM

COc1ccc(-c2ccc(Oc3cccc4c3OC(C)(C)C4)c(NC(=O)Nc3ccccc3Cl)c2)cc1C(=O)O [Example 133, 3′-(3-(2-chlorophenyl)ureido)-4′-(2,2-dimethyl-2,3-dihydrobenzofuran-7-yloxy)-4-methoxybiphenyl-3-carboxylic acid]
IC50 (IDO [1]): 590 nM | IC50 (IDO [2]): 1830 nM

COc1ccc(-c2ccc(Oc3cccc4c3OC(C)(C)C4)c(NC(=O)Nc3ccccc3C)c2)cc1C(=O)O [Example 139, 4′-(2,2-dimethyl-2,3-dihydrobenzofuran-7-yloxy)-4-methoxy-3′-(3-o-tolylureido)biphenyl-3-carboxylic acid]
IC50 (IDO [1]): 680 nM | IC50 (IDO [2]): 2640 nM

COc1ccc(-c2ccc(Oc3cccc4c3OC(C)(C)C4)c(NC(=O)Nc3cccc(C)c3)c2)cc1C(=O)O [Example 140, 4′-(2,2-dimethyl-2,3-dihydrobenzofuran-7-yloxy)-4-methoxy-3′-(3-m-tolylureido)biphenyl-3-carboxylic acid]
IC50 (IDO [1]): 970 nM | IC50 (IDO [2]): 3850 nM

COc1ccc(-c2ccc(Oc3cccc4c3CCC4)c(NC(=O)Nc3cccc(C)c3)c2)cc1C(=O)O [Example 144, 4′-(2,3-dihydro-1H-inden-4-yloxy)-4-methoxy-3′-(3-m-tolylureido)biphenyl-3-carboxylic acid]
IC50 (IDO [1]): 150 nM | IC50 (IDO [2]): 510 nM

COc1ccc(-c2ccc(Oc3ccc4c(c3)CCCC4)c(NC(=O)Nc3ccccc3C)c2)cc1C(=O)O [Example 146, 4-methoxy-4′-(5,6,7,8-tetrahydronaphthalen-2-yloxy)-3′-(3-o-tolylureido)biphenyl-3-carboxylic acid]
IC50 (IDO [1]): 270 nM | IC50 (IDO [2]): 580 nM

COc1ccc(-c2ccc(Oc3ccc4c(c3)CCCC4)c(NC(=O)Nc3cccc(C)c3)c2)cc1C(=O)O [Example 147, 4-methoxy-4′-(5,6,7,8-tetrahydronaphthalen-2-yloxy)-3′-(3-m-tolylureido)biphenyl-3-carboxylic acid]
IC50 (IDO [1]): 460 nM | IC50 (IDO [2]): 1320 nM

COc1ccc(-c2ccc(Oc3cccc4c3CCCC4=O)c(NC(=O)Nc3ccccc3Cl)c2)cc1C(=O)O [Example 149, 3′-(3-(2-chlorophenyl)ureido)-4-methoxy-4′-(5-oxo-5,6,7,8-tetrahydronaphthalen-1-yloxy)biphenyl-3-carboxylic acid]
IC50 (IDO [1]): 530 nM | IC50 (IDO [2]): 2050 nM

COc1ccc(-c2ccc(Oc3cccc4c3CCCC4=O)c(NC(=O)Nc3ccccc3C)c2)cc1C(=O)O [Example 150, 4-methoxy-4′-(5-oxo-5,6,7,8-tetrahydronaphthalen-1-yloxy)-3′-(3-o-tolylureido)biphenyl-3-carboxylic acid]
IC50 (IDO [1]): 710 nM | IC50 (IDO [2]): 7190 nM

COc1ccc(-c2ccc(Oc3cccc4c3CCCC4)c(NC(=O)Nc3ccc(F)cc3F)c2)cc1C(=O)O [Example 154, 3′-(3-(2,4-difluorophenyl)ureido)-4-methoxy-4′-(5,6,7,8-tetrahydronaphthalen-1-yloxy)biphenyl-3-carboxylic acid]
IC50 (IDO [1]): 140 nM | IC50 (IDO [2]): 540 nM

Cc1ccccc1NC(=O)Nc1cc(-c2ccccc2C(=O)O)ccc1Oc1ccccc1C(C)(C)C [Example 156, 4′-(2-tert-butylphenoxy)-3′-(3-o-tolylureido)biphenyl-2-carboxylic acid]
IC50 (IDO [1]): 640 nM | IC50 (IDO [2]): 680 nM

Cc1cccc(NC(=O)Nc2cc(-c3ccccc3C(=O)O)ccc2Oc2ccccc2C(C)(C)C)c1 [Example 157, 4′-(2-tert-butylphenoxy)-3′-(3-m-tolylureido)biphenyl-2-carboxylic acid]
IC50 (IDO [1]): 2120 nM | IC50 (IDO [2]): 3680 nM

CC(C)(C)c1ccccc1Oc1ccc(-c2ccc(Cl)cc2C(=O)O)cc1NC(=O)Nc1ccccc1Cl [Example 158, 4′-(2-tert-butylphenoxy)-4-chloro-3′-(3-(2-chlorophenyl)ureido)biphenyl-2-carboxylic acid]
IC50 (IDO [1]): 860 nM | IC50 (IDO [2]): 4060 nM

Cc1ccccc1NC(=O)Nc1cc(-c2ccc(Cl)cc2C(=O)O)ccc1Oc1ccccc1C(C)(C)C [Example 159, 4′-(2-tert-butylphenoxy)-4-chloro-3′-(3-o-tolylureido)biphenyl-2-carboxylic acid]
IC50 (IDO [1]): 870 nM | IC50 (IDO [2]): 3470 nM

Cc1ccc(NC(=O)Nc2cc(-c3ccc(Cl)cc3C(=O)O)ccc2Oc2ccccc2C(C)(C)C)cc1 [Example 161, 4′-(2-tert-butylphenoxy)-4-chloro-3′-(3-p-tolylureido)biphenyl-2-carboxylic acid]
IC50 (IDO [1]): 50 nM | IC50 (IDO [2]): 240 nM

COc1ccc(-c2ccc(Oc3ccccc3C(C)(C)C)c(NC(=O)Nc3ccccc3C)c2)c(C(=O)O)c1 [Example 162, 4′-(2-tert-butylphenoxy)-4-methoxy-3′-(3-o-tolylureido)biphenyl-2-carboxylic acid]
IC50 (IDO [1]): 1250 nM | IC50 (IDO [2]): 2240 nM

COc1ccc(-c2ccc(Oc3ccccc3C(C)(C)C)c(NC(=O)Nc3ccc(C)cc3)c2)c(C(=O)O)c1 [Example 163, 4′-(2-tert-butylphenoxy)-4-methoxy-3′-(3-p-tolylureido)biphenyl-2-carboxylic acid]
IC50 (IDO [1]): 160 nM | IC50 (IDO [2]): 470 nM

COc1ccc(-c2ccc(Oc3ccccc3C(C)(C)C)c(NC(=O)Nc3ccccc3Cl)c2)c(C(=O)O)c1 [Example 164, 4′-(2-tert-butylphenoxy)-3′-(3-(2-chlorophenyl)ureido)-4-methoxybiphenyl-2-carboxylic acid]
IC50 (IDO [1]): 280 nM | IC50 (IDO [2]): 330 nM

COc1cc(C(=O)O)c(-c2ccc(Oc3ccccc3C(C)(C)C)c(NC(=O)Nc3ccc(C)cc3)c2)cc1OC [Example 165, 4′-(2-tert-butylphenoxy)-4,5-dimethoxy-3′-(3-p-tolylureido)biphenyl-2-carboxylic acid]
IC50 (IDO [1]): 390 nM | IC50 (IDO [2]): 460 nM

CC(C)(C)c1ccccc1Oc1ccc(-c2cc(Cl)ccc2C(=O)O)cc1NC(=O)Nc1ccccc1Cl [Example 166, 4′-(2-tert-butylphenoxy)-5-chloro-3′-(3-(2-chlorophenyl)ureido)biphenyl-2-carboxylic acid]
IC50 (IDO [1]): 1300 nM | IC50 (IDO [2]): 3630 nM

Cc1ccccc1NC(=O)Nc1cc(-c2cc(Cl)ccc2C(=O)O)ccc1Oc1ccccc1C(C)(C)C [Example 167, 4′-(2-tert-butylphenoxy)-5-chloro-3′-(3-o-tolylureido)biphenyl-2-carboxylic acid]
IC50 (IDO [1]): 1670 nM | IC50 (IDO [2]): 3810 nM

Cc1ccc(NC(=O)Nc2cc(-c3cc(Cl)ccc3C(=O)O)ccc2Oc2ccccc2C(C)(C)C)cc1 [Example 168, 4′-(2-tert-butylphenoxy)-5-chloro-3′-(3-p-tolylureido)biphenyl-2-carboxylic acid]
IC50 (IDO [1]): 240 nM | IC50 (IDO [2]): 660 nM

CC(C)(C)c1ccccc1Oc1ccc(-c2ccc(F)cc2C(=O)O)cc1NC(=O)Nc1ccccc1Cl [Example 169, 4′-(2-tert-butylphenoxy)-3′-(3-(2-chlorophenyl)ureido)-4-fluorobiphenyl-2-carboxylic acid]
IC50 (IDO [1]): 660 nM | IC50 (IDO [2]): 2340 nM

Cc1ccc(NC(=O)Nc2cc(-c3ccc(F)cc3C(=O)O)ccc2Oc2ccccc2C(C)(C)C)cc1 [Example 170, 4′-(2-tert-butylphenoxy)-4-fluoro-3′-(3-p-tolylureido)biphenyl-2-carboxylic acid]
IC50 (IDO [1]): 810 nM | IC50 (IDO [2]): 2230 nM

Cc1ccc(NC(=O)Nc2cc(-c3cccc(F)c3C(=O)O)ccc2Oc2ccccc2C(C)(C)C)cc1 [Example 171, 4′-(2-tert-butylphenoxy)-3-fluoro-3′-(3-p-tolylureido)biphenyl-2-carboxylic acid]
IC50 (IDO [1]): 90 nM | IC50 (IDO [2]): 310 nM

CC(C)(C)c1ccccc1Oc1ccc(-c2cccc(Cl)c2C(=O)O)cc1NC(=O)Nc1ccccc1Cl [Example 172, 4′-(2-tert-butylphenoxy)-3-chloro-3′-(3-(2-chlorophenyl)ureido)biphenyl-2-carboxylic acid]
IC50 (IDO [1]): 1280 nM | IC50 (IDO [2]): 1920 nM

Cc1ccccc1NC(=O)Nc1cc(-c2cccc(Cl)c2C(=O)O)ccc1Oc1ccccc1C(C)(C)C [Example 173, 4′-(2-tert-butylphenoxy)-3-chloro-3′-(3-o-tolylureido)biphenyl-2-carboxylic acid]
IC50 (IDO [1]): 1630 nM | IC50 (IDO [2]): 3070 nM

Cc1ccc(NC(=O)Nc2cc(-c3cccc(Cl)c3C(=O)O)ccc2Oc2ccccc2C(C)(C)C)cc1 [Example 174, 4′-(2-tert-butylphenoxy)-3-chloro-3′-(3-p-tolylureido)biphenyl-2-carboxylic acid]
IC50 (IDO [1]): 280 nM | IC50 (IDO [2]): 320 nM
